# Source: patent US20230310428A1, “EGFR INHIBITOR AND PREPARATION METHOD AND USE THEREOF” (HONGYUN BIOTECH CO., LTD., priority 2020, published 2023)
# Tests used:
# Assay in all cases: Growth inhibitory activity of compounds on BaF3 cell lines stably transfected with kinase (MTS, 48 h)
# Type in all cases: cell-based
# [1] = molecular target: T1, various mutants of kinase EGFR (BaF3 cell lines stably transfected with kinase) (Homo sapiens, UniProt P00533, L858R/T790M); settings: BaF3 cell line stably transfected with EGFR L858R/T790M, read-out: L858R/ T790M growth inhibitory activity IC50
# T1 construct: expressed in transfected cells; host or cells: BaF3
# In short: (§1)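 Transfected cells received compound (max 10 µM, 8 concentrations) for 48 h; MTS readout at 490 nm yielded IC50.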
# [2] = molecular target: T2, various mutants of kinase EGFR (BaF3 cell lines stably transfected with kinase) (Homo sapiens, UniProt P00533, L858R); settings: BaF3 cell line stably transfected with EGFR L858R, read-out: L858R growth inhibitory activity IC50
# T2 construct: expressed in transfected cells; host or cells: BaF3
# T2 sequence (P00533 25-1210 L858R): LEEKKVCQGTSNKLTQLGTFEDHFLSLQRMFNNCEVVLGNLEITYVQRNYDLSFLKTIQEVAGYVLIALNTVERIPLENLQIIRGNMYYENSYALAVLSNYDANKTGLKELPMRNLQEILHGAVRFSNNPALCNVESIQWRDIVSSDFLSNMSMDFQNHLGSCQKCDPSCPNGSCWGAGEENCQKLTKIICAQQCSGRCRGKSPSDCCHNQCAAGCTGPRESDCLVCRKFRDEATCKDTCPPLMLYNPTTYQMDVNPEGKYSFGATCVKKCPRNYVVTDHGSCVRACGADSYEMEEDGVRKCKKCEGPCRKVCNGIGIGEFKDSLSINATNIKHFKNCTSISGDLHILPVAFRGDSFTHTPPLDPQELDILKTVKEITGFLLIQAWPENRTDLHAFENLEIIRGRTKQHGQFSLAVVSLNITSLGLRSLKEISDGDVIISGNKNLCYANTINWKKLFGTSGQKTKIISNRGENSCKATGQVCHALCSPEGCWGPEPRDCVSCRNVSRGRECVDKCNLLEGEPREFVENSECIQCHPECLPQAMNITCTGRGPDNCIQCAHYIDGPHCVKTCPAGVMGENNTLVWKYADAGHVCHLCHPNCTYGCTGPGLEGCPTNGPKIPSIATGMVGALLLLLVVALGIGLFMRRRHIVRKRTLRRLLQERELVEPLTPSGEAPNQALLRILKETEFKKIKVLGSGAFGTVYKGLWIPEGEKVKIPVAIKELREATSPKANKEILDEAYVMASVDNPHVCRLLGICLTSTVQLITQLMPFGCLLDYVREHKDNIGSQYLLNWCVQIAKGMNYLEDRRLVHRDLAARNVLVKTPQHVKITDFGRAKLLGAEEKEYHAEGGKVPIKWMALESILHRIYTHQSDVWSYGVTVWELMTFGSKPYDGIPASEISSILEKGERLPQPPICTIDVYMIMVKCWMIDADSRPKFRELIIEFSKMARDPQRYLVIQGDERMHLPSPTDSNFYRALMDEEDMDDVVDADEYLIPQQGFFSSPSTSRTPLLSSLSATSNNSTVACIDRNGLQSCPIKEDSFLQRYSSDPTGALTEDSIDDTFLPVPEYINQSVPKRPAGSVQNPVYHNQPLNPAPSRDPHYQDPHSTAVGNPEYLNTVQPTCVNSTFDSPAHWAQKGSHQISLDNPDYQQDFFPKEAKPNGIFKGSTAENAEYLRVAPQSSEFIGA
# In short: as §1
# [3] = molecular target: T3, various mutants of kinase EGFR (BaF3 cell lines stably transfected with kinase) (Homo sapiens, UniProt P00533, T790M, form not given); settings: BaF3 cell line stably transfected with EGFR Δ19Del/T790M, read-out: Δ19Del/ T790M growth inhibitory activity IC50
# T3 construct: other: BaF3 cells stably transfected with EGFR Δ19Del/T790M; MTS, 48 h; other: BaF3 cell line stably transfected with EGFR Δ19Del/T790M; MTS, 48
# T3 sequence (P00533 with tags, fused parts or gaps DEL746-750/T790M, form open): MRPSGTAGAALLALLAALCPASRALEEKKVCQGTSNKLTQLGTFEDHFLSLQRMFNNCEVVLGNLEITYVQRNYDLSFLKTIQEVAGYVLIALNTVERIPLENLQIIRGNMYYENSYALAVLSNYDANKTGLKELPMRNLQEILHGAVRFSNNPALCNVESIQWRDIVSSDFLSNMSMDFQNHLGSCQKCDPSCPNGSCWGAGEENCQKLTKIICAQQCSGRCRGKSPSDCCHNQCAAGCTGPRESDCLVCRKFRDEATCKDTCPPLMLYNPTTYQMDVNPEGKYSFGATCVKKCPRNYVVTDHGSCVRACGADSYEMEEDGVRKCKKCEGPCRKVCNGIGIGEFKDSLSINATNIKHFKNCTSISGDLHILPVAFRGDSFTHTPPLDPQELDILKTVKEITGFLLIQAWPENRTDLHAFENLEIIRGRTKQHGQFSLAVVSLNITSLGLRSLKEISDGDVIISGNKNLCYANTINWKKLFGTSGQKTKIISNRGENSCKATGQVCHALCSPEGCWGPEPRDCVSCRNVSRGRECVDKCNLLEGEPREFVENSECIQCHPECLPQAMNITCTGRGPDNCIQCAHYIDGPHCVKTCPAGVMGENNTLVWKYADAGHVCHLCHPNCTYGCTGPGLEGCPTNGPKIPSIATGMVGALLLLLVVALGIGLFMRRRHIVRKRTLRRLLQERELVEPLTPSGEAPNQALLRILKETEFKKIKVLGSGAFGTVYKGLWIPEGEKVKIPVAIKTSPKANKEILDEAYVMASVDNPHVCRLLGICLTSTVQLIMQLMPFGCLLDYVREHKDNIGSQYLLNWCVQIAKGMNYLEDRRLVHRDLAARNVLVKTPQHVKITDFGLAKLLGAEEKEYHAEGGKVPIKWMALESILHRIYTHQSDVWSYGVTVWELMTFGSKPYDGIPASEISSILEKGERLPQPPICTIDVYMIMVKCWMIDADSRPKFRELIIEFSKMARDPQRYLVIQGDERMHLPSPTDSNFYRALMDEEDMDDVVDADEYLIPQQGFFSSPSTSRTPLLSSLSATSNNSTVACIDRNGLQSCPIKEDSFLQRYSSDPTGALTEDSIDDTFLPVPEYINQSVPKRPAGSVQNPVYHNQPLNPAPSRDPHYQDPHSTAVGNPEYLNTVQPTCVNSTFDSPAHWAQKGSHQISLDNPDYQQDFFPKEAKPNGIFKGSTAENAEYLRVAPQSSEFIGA
# In short: as §1
# [4] = molecular target: T4, various mutants of kinase EGFR (BaF3 cell lines stably transfected with kinase) (Homo sapiens, UniProt P00533, T790M/C797S, form not given); settings: BaF3 cell line stably transfected with EGFR Δ19Del/T790M/C797S, read-out: Δ19Del/T790M/ C797S growth inhibitory activity IC50
# T4 construct: other: BaF3 cells stably transfected with EGFR Δ19Del/T790M/C797S; MTS, 48; other: BaF3 cell line stably transfected with EGFR Δ19Del/T790M/C7
# T4 sequence (P00533 with tags, fused parts or gaps DEL746-750/T790M/C797S, form open): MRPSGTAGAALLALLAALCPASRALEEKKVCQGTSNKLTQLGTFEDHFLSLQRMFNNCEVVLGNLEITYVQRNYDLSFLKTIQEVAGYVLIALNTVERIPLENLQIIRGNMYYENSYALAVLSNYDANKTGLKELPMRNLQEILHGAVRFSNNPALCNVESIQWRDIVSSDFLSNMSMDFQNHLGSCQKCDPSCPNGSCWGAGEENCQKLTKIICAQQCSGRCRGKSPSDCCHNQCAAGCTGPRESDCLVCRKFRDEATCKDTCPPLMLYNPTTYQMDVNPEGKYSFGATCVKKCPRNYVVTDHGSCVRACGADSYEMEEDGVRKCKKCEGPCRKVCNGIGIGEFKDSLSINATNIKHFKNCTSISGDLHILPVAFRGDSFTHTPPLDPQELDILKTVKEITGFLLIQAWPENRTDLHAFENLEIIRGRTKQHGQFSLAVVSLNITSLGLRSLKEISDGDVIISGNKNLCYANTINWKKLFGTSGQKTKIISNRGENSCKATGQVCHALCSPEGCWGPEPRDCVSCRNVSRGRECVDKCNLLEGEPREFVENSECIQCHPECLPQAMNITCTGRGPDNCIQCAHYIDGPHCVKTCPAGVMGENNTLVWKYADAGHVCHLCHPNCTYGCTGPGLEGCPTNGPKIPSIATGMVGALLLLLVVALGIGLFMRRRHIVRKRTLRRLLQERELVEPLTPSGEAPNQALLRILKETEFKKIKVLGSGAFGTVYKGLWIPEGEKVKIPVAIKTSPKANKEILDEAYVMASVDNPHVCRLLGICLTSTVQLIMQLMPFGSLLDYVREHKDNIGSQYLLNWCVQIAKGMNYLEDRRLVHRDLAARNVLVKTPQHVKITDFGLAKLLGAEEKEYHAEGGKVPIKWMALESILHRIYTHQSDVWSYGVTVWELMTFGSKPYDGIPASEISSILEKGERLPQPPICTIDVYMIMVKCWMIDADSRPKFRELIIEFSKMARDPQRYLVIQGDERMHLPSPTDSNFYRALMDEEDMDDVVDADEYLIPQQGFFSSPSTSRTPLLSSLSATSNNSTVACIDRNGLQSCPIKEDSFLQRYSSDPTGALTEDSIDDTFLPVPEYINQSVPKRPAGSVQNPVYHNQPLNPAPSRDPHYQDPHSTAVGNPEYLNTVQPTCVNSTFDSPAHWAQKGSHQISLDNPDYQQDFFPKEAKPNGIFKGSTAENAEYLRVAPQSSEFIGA
# In short: as §1
# [5] = molecular target: T5, various mutants of kinase EGFR (BaF3 cell lines stably transfected with kinase) (Homo sapiens, UniProt P00533, C797S/L858R/T790M); settings: BaF3 cell line stably transfected with EGFR L858R/T790M/C797S, read-out: L858R/T790M/ C797S growth inhibitory activity IC50
# T5 construct: expressed in transfected cells; host or cells: BaF3
# In short: as §1
# [6] = molecular target: T6, various mutants of kinase EGFR (BaF3 cell lines stably transfected with kinase) (Homo sapiens, UniProt P00533); settings: BaF3 cell line stably transfected with EGFR Δ19Del, read-out: Δ19Del growth inhibitory activity IC50
# T6 construct: other: BaF3 cells stably transfected with EGFR Δ19Del; MTS, 48 h; other: BaF3 cell line stably transfected with EGFR Δ19Del
# T6 sequence (P00533 with tags, fused parts or gaps DEL746-750): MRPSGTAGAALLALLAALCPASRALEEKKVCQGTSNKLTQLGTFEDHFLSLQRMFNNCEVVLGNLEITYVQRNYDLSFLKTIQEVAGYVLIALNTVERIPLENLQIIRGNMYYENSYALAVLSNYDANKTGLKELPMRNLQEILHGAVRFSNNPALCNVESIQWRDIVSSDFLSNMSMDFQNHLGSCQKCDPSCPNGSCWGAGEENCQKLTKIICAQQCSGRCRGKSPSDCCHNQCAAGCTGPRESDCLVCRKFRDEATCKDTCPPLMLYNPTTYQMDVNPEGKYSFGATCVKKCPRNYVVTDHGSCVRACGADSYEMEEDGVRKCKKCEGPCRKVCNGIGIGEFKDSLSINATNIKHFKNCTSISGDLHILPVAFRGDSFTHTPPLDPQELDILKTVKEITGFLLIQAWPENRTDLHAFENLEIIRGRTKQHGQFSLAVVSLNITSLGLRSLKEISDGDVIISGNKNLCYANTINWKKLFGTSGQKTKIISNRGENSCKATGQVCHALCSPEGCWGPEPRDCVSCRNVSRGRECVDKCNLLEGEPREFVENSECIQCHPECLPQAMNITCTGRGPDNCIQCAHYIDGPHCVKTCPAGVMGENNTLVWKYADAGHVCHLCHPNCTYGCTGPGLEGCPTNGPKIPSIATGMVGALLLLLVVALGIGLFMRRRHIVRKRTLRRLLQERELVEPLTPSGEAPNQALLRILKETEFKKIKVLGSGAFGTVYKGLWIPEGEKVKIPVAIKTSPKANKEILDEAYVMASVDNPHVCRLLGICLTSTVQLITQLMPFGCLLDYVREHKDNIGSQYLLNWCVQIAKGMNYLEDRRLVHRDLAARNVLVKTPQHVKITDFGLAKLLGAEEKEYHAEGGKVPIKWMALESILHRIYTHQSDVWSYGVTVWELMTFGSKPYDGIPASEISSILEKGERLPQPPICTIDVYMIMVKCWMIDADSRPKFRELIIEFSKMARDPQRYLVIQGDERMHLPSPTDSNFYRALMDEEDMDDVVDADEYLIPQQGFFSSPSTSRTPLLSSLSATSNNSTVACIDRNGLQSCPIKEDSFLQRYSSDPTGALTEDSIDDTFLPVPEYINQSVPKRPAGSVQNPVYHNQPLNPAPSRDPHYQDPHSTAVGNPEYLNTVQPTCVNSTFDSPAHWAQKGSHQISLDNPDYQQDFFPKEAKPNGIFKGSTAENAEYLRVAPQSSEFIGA
# In short: as §1
SMILES,IC50 [1] [nM],IC50 [2] [nM],IC50 [3] [nM],IC50 [4] [nM],IC50 [5] [nM],IC50 [6] [nM]
CCOc1cnc(Nc2cc(CC)c(N3CCC(N4CCN(C)CC4)CC3)nc2OC)nc1Nc1ccc2nccnc2c1N(C)S(C)(=O)=O [Compound I-338],50 to 500,50 to 500,50 to 500,500 to 2500,50 to 500,50 to 500
COc1cc(N2CCC(N3CCN(C)CC3)CC2)c(C(C)C)cc1Nc1nccc(Nc2ccc3nccnc3c2N(C)S(C)(=O)=O)n1 [Compound I-342],50 to 500,50 to 500,50 to 500,500 to 2500,500 to 2500,50 to 500
COc1cc(N2CCC(N3CCN(C)CC3)CC2)c(C2CC2)cc1Nc1nccc(Nc2ccc3nccnc3c2N(C)S(C)(=O)=O)n1 [Compound I-343],50 to 500,50 to 500,50 to 500,50 to 500,50 to 500,50 to 500
COc1cc(N2CCC(N3CCN(C)CC3)CC2)c(C(C)C)cc1Nc1ncc(C#N)c(Nc2ccc3nccnc3c2N(C)S(C)(=O)=O)n1 [Compound I-345],50 to 500,50 to 500,50 to 500,50 to 500,50 to 500,50 to 500
CCc1cc(Nc2ncc(C3CC3)c(Nc3ccc4nccnc4c3N(C)S(C)(=O)=O)n2)c(OC)cc1C(=O)N1CCC(N2CCN(C)CC2)CC1 [Compound I-347],50 to 500,50 to 500,500 to 2500,50 to 500,50 to 500,500 to 2500
CCc1cnc(Nc2ccc(N3CCC(N4CCN(C)CC4)CC3)c(F)c2F)nc1Nc1ccc2nccnc2c1N(C)S(C)(=O)=O [Compound I-348],50 to 500,50 to 500,≤ 50,50 to 500,50 to 500,50 to 500
CCc1cc(Nc2ncc(CC)c(Nc3ccc4nccnc4c3N(C)S(C)(=O)=O)n2)c(OC)cc1C(=O)N1CCC(N2CCN(C)CC2)CC1 [Compound I-350],50 to 500,50 to 500,50 to 500,50 to 500,50 to 500,50 to 500
CCc1cc(Nc2ncc(Br)c(Nc3ccc4nccnc4c3N(C)S(C)(=O)=O)n2)c(OC)cc1C(=O)N1CCC(N2CCN(C)CC2)CC1 [Compound I-355],50 to 500,50 to 500,50 to 500,≤ 50,50 to 500,50 to 500
CCc1cc(Nc2ncc(Cl)c(Nc3ccc4nccnc4c3N(C)S(C)(=O)=O)n2)c(OC)cc1C(=O)N1CCC(N2CCN(C)CC2)CC1 [Compound I-358],50 to 500,50 to 500,50 to 500,50 to 500,50 to 500,500 to 2500
CN1CCN(C2CCN(c3ccc(Nc4ncc(Br)c(Nc5ccc6nccnc6c5NS(C)(=O)=O)n4)c(F)c3F)CC2)CC1 [Compound I-359],≤ 50,≤ 50,≤ 50,≤ 50,≤ 50,≤ 50
CN1CCN(C2CCN(c3c(F)cc(Nc4ncc(Br)c(Nc5ccc6nccnc6c5NS(C)(=O)=O)n4)cc3F)CC2)CC1 [Compound I-360],≤ 50,≤ 50,50 to 500,50 to 500,50 to 500,50 to 500
CCc1cc(Nc2ncc(Br)c(Nc3ccc4nccnc4c3NS(C)(=O)=O)n2)c(OC)cc1C(=O)N1CCC(N2CCN(C)CC2)CC1 [Compound I-361],50 to 500,500 to 2500,500 to 2500,500 to 2500,500 to 2500,500 to 2500
COc1ccc(N2CCC(O)CC2)cc1Nc1ncc(C)c(Nc2ccc3nccnc3c2N(C)S(C)(=O)=O)n1 [Compound I-362],50 to 500,≤ 50,50 to 500,≤ 50,≤ 50,50 to 500
CCc1cnc(Nc2cc(N3CCC(O)CC3)ccc2OC)nc1Nc1ccc2nccnc2c1N(C)S(C)(=O)=O [Compound I-363],≤ 50,≤ 50,50 to 500,≤ 50,≤ 50,≤ 50
COc1ccc(N2CCC(O)CC2)cc1Nc1ncc(C(C)C)c(Nc2ccc3nccnc3c2N(C)S(C)(=O)=O)n1 [Compound I-364],50 to 500,50 to 500,≤ 50,50 to 500,≤ 50,≤ 50
COc1ccc(N2CCC(O)CC2)cc1Nc1ncc(C2CC2)c(Nc2ccc3nccnc3c2N(C)S(C)(=O)=O)n1 [Compound I-365],≤ 50,≤ 50,50 to 500,≤ 50,≤ 50,50 to 500
COc1ccc(N2CCC(O)CC2)cc1Nc1ncc(OC)c(Nc2ccc3nccnc3c2N(C)S(C)(=O)=O)n1 [Compound I-366],≤ 50,50 to 500,50 to 500,≤ 50,≤ 50,50 to 500

# Results, then the compound that gave them:
IC50 [1] [nM],IC50 [2] [nM],IC50 [3] [nM],IC50 [4] [nM],IC50 [5] [nM],IC50 [6] [nM],SMILES
≤ 50,≤ 50,≤ 50,50 to 500,50 to 500,≤ 50,COc1cc(N2CCC(N3CCN(C)CC3)CC2)c(C)cc1Nc1nccc(Nc2ccc3nccnc3c2N(C)S(C)(=O)=O)n1 [Compound I-340]
≤ 50,≤ 50,≤ 50,50 to 500,≤ 50,≤ 50,CCc1cc(Nc2nccc(Nc3ccc4nccnc4c3N(C)S(C)(=O)=O)n2)c(OC)cc1N1CCC(N2CCN(C)CC2)CC1 [Compound I-341]
≤ 50,≤ 50,50 to 500,50 to 500,≤ 50,≤ 50,CCc1cc(Nc2nccc(Nc3ccc4nccnc4c3N(C)S(C)(=O)=O)n2)ccc1N1CCC(N2CCN(C)CC2)CC1 [Compound I-344]
≤ 50,≤ 50,≤ 50,50 to 500,≤ 50,≤ 50,CCc1cc(Nc2ncc(C#N)c(Nc3ccc4nccnc4c3N(C)S(C)(=O)=O)n2)ccc1N1CCC(N2CCN(C)CC2)CC1 [Compound I-346]
≤ 50,≤ 50,≤ 50,≤ 50,≤ 50,50 to 500,CCc1cnc(Nc2cc(F)c(N3CCC(N4CCN(C)CC4)CC3)c(F)c2)nc1Nc1ccc2nccnc2c1N(C)S(C)(=O)=O [Compound I-349]
≤ 50,50 to 500,50 to 500,50 to 500,50 to 500,50 to 500,COc1ccc(N2CCC(C#N)CC2)cc1Nc1ncc(Br)c(Nc2ccc3nccnc3c2N(C)S(C)(=O)=O)n1 [Compound I-351]
≤ 50,50 to 500,50 to 500,50 to 500,50 to 500,50 to 500,COc1ccc(N2CCNCC2)cc1Nc1ncc(Br)c(Nc2ccc3nccnc3c2N(C)S(C)(=O)=O)n1 [Compound I-352]
≤ 50,≤ 50,≤ 50,≤ 50,≤ 50,50 to 500,CN1CCN(C2CCN(c3ccc(Nc4ncc(Br)c(Nc5ccc6nccnc6c5N(C)S(C)(=O)=O)n4)c(F)c3F)CC2)CC1 [Compound I-353]
≤ 50,≤ 50,≤ 50,≤ 50,≤ 50,50 to 500,CN1CCN(C2CCN(c3c(F)cc(Nc4ncc(Br)c(Nc5ccc6nccnc6c5N(C)S(C)(=O)=O)n4)cc3F)CC2)CC1 [Compound I-354]
≤ 50,≤ 50,50 to 500,≤ 50,50 to 500,50 to 500,CN1CCN(C2CCN(c3ccc(Nc4ncc(Cl)c(Nc5ccc6nccnc6c5N(C)S(C)(=O)=O)n4)c(F)c3F)CC2)CC1 [Compound I-356]
≤ 50,≤ 50,≤ 50,≤ 50,≤ 50,50 to 500,CN1CCN(C2CCN(c3c(F)cc(Nc4ncc(Cl)c(Nc5ccc6nccnc6c5N(C)S(C)(=O)=O)n4)cc3F)CC2)CC1 [Compound I-357]
